Experiment: xn = mol fraction of the nth substance listed
Settings: 101 kPa, Liquid; for speed of sound: Sing-around technique in a fixed-path interferometer; for mass density: Vibrating tube method

CCCCCCCC[n+]1ccccc1.[Br-] [1-octylpyridinium bromide] + O
Settings | mass density, 308.15 K [kg/m3] | mass density, 318.15 K [kg/m3] | speed of sound, 308.15 K [m/s] | speed of sound, 318.15 K [m/s]
x2 = 0.0524 | 1167.92 | 1161.5 | 1507.5 | 1479.5
x2 = 0.1125 | 1167.75 | 1161.26 | 1508.2 | 1481.4
x2 = 0.2085 | 1167.44 | 1160.87 | 1509.1 | 1483.4
x2 = 0.2612 | 1167.11 | 1160.51 | 1509.6 | 1485
x2 = 0.3065 | 1166.66 | 1160.04 | 1510.1 | 1486.3
x2 = 0.4098 | 1164.79 | 1158.11 | 1511.2 | 1489.1
x2 = 0.4611 | 1163.24 | 1156.52 | 1511.8 | 1490.4
x2 = 0.5075 | 1161.35 | 1154.59 | 1512.2 | 1492
x2 = 0.6091 | 1155.07 | 1148.2 | 1513.8 | 1494.8
x2 = 0.6541 | 1151.03 | 1144.1 | 1514.5 | 1497.2
x2 = 0.7031 | 1145.4 | 1138.43 | 1515.1 | 1502.2
x2 = 0.7485 | 1138.7 | 1131.69 | 1516 | 1506.7
x2 = 0.8065 | 1127.15 | 1120.15 | 1516.8 | 1512.5
x2 = 0.8545 | 1113.64 | 1106.77 | 1517.5 | 1518
x2 = 0.9065 | 1091.9 | 1085.37 | 1518.2 | 1523.5
x2 = 0.9503 | 1062.05 | 1056.24 | 1518.8 | 1529.3

CCCCCCCC[n+]1ccc(C)cc1.[Cl-] [4-methyl-1-octylpyridinium chloride] + O
Settings | mass density, 308.15 K [kg/m3] | mass density, 318.15 K [kg/m3] | speed of sound, 308.15 K [m/s] | speed of sound, 318.15 K [m/s]
x2 = 0.0612 | 1107.62 | 1101.69 | 1448.6 | 1417.4
x2 = 0.1098 | 1107.56 | 1101.55 | 1452 | 1421.5
x2 = 0.2054 | 1107.52 | 1101.39 | 1457.5 | 1430.4
x2 = 0.2476 | 1107.46 | 1101.31 | 1459.9 | 1435.3
x2 = 0.3088 | 1107.3 | 1101.1 | 1463.2 | 1439.9
x2 = 0.4187 | 1106.44 | 1100.18 | 1468.7 | 1451.7
x2 = 0.4521 | 1105.97 | 1099.68 | 1472.2 | 1454.6
x2 = 0.5065 | 1104.89 | 1098.57 | 1475.1 | 1461.8
x2 = 0.6021 | 1101.75 | 1095.32 | 1483.4 | 1475
x2 = 0.6532 | 1099.16 | 1092.65 | 1487.9 | 1482.3
x2 = 0.7042 | 1095.66 | 1089.07 | 1492.5 | 1490.3
x2 = 0.7565 | 1090.74 | 1084.09 | 1497.2 | 1498.6
x2 = 0.8029 | 1084.75 | 1078.06 | 1501.7 | 1506.7
x2 = 0.8577 | 1074.57 | 1067.97 | 1505.2 | 1513.6
x2 = 0.9035 | 1061.61 | 1055.25 | 1510.4 | 1521.1
x2 = 0.9511 | 1039.58 | 1033.92 | 1514.3 | 1528.4

CCCCCCCC[n+]1ccccc1.[Cl-] [N-octylpyridinium chloride] + O
Settings | mass density, 308.15 K [kg/m3] | mass density, 318.15 K [kg/m3] | speed of sound, 308.15 K [m/s] | speed of sound, 318.15 K [m/s]
x2 = 0.0625 | 1128.68 | 1122.77 | 1483.2 | 1452.1
x2 = 0.1156 | 1128.57 | 1122.56 | 1484.1 | 1453.2
x2 = 0.2085 | 1128.29 | 1122.18 | 1485.3 | 1456.7
x2 = 0.2545 | 1128.08 | 1121.95 | 1486.2 | 1458.4
x2 = 0.306 | 1127.76 | 1121.63 | 1488 | 1461.8
x2 = 0.4127 | 1126.71 | 1120.54 | 1491.7 | 1464.8
x2 = 0.4534 | 1126.09 | 1119.9 | 1493.7 | 1466.1
x2 = 0.4995 | 1125.19 | 1118.95 | 1495 | 1469.4
x2 = 0.6103 | 1121.68 | 1115.24 | 1499.8 | 1473.8
x2 = 0.6508 | 1119.68 | 1113.12 | 1501.8 | 1477.2
x2 = 0.6962 | 1116.7 | 1110.01 | 1504.9 | 1481.8
x2 = 0.7542 | 1111.3 | 1104.41 | 1507.1 | 1487.1
x2 = 0.8086 | 1103.65 | 1096.63 | 1509.4 | 1493.7
x2 = 0.8512 | 1094.75 | 1087.7 | 1511.3 | 1497.9
x2 = 0.9009 | 1078.75 | 1071.93 | 1513.2 | 1505.5
x2 = 0.9485 | 1052.47 | 1046.38 | 1515.5 | 1515.2

From the NIST ThermoML archive (doi:10.1021/acs.jced.6b00460)
